{
  "source": "PubChem BioAssay AID1259408",
  "about": "(Genetic Toxicology Data Bank (GENE-TOX), 2018)",
  "tested_on": "GENE-TOX genotoxicity assays, various organisms and cells",
  "test": "GENE-TOX mutagenicity studies",
  "conditions": "Evaluation Type: Evaluation A (Pre-1980)",
  "note": "Active and inactive are the calls of the source. No rule for the calls is given here.",
  "data": [
    {"smiles": "C/[N+]([O-])=N/CO", "values": [
      {"measurement": "mutagenic call", "setting": "Species/Cell Type: Chinese hamster lung (V79) cells, Assay Type: Forward gene mutation at the HPRT or ouabain locus, Assay Code: V79+", "result": "active; positive"},
      {"measurement": "mutagenic call", "setting": "Species/Cell Type: Drosophila melanogaster, Assay Type: Sex-linked recessive lethal gene mutation, Assay Code: SRL+", "result": "active; positive"},
      {"measurement": "call", "setting": "Species/Cell Type: Nonhuman, Assay Type: In vivo carcinogenicity studies, Assay Code: CCG+", "result": "active; positive"},
      {"measurement": "mutagenic call", "setting": "Species/Cell Type: Salmonella typhimurium, Assay Type: Forward and reverse gene mutation, body fluid assay, Assay Code: BFU+", "result": "active; positive"},
      {"measurement": "mutagenic call", "setting": "Species/Cell Type: Syrian hamster embryo (SHE) cells, Assay Type: Cell transformation, clonal assay, Assay Code: CTC+", "result": "active; positive"}
    ]},
    {"smiles": "COc1ccc(C[C@H](N)C(=O)N[C@H]2[C@@H](O)[C@H](n3cnc4c(N(C)C)ncnc43)O[C@@H]2CO)cc1", "values": [
      {"measurement": "mutagenic call", "setting": "Species/Cell Type: Escherichia coli polA (W3110 vs P3478), Assay Type: Rec-assay, DNA effects (bacterial DNA repair), Assay Code: RE2+", "result": "active; positive"},
      {"measurement": "mutagenic call", "setting": "Species/Cell Type: Escherichia coli polA (W3119 vs P3478), Assay Type: Rec-assay, DNA effects (bacterial DNA repair), Assay Code: RE1-", "result": "inactive; negative"},
      {"measurement": "mutagenic call", "setting": "Species/Cell Type: Glycine max (soybean), Assay Type: Gene mutation, Assay Code: GLMT", "result": "no conclusion"},
      {"measurement": "mutagenic call", "setting": "Species/Cell Type: Rodents, Sex: Male, Assay Type: Dominant lethal test, Assay Code: DLT-", "result": "inactive; negative"}
    ]}
  ]
}
